This is an account of results in patent US6706740B2, “Fungicidal heterocyclic aromatic amides and their compositions, methods of use and preparation” (Dow AgroSciences LLC, priority 1999, dated 2004).

The test system of experiment [1] is Stagonospora nodorum (Leptosphaeria nodorum—LEPTNO). Briefly: In vitro fungal growth inhibition, Stagonospora nodorum (LEPTNO). The class given is cell-based. The note with it: Leptosphaeria; 25 ppm in growth medium; read-out: LEPTNO in vitro Growth Inhibition.
Experiment [2] concerns Puccinia recondita—PUCCRT. Briefly: Brown Rust of Wheat, in vivo whole plant, 24 Hour Protectant. To be noted: 100 ppm spray, 24 hour protectant, wheat, control of fungal infection vs untreated plants; for pest or weed control at 100 ppm: Puccinia, read-out: PUCCRT in vivo 1 Day Protectant.
The test system of experiment [3] is Phytophthora infestans—PHYTIN. As to the kind of experiment: whole plant or invertebrate. The class given is in vivo. The note with it: Phytophthora, in Solanum lycopersicum, 24 h, read-out: PHYTIN in vivo 1 Day Protectant.
In experiment [4] the test system is Magnaporthe grisea (Pyricularia oryzae—PYRIOR). Briefly: microbe, parasite or virus in culture. It counts as cell-based. To be noted: Pyricularia oryzae, read-out: PYRIOR in vitro Growth Inhibition.
The subject of experiment [5] is Mycosphaerella graminicola (Septoria tritici—SEPTTR). As to the kind of experiment: In vitro fungal growth inhibition, Mycosphaerella graminicola (SEPTTR). The class given is cell-based. The note with it: Zymoseptoria tritici; 25 ppm in growth medium; read-out: SEPTTR in vitro Growth Inhibition.
The subject of experiment [6] is Phytophthora infestans (PHYTIN). As to the kind of experiment: microbe, parasite or virus in culture. The class given is cell-based. The note with it: Phytophthora infestans, read-out: PHYTIN in vitro Growth Inhibition.
The test system of experiment [7] is Leptosphaeria nodorum—LEPTNO. Briefly: Glume Blotch of Wheat, in vivo whole plant, 24 Hour Protectant. To be noted: 100 ppm spray, 24 hour protectant, wheat, control of fungal infection vs untreated plants; for pest or weed control at 100 ppm: Leptosphaeria, read-out: LEPTNO in vivo 1 Day Protectant.
The next experiment relates to Erysiphe graminis—ERYSGT. As to the kind of experiment: Powdery Mildew of Wheat, in vivo whole plant, 24 Hour Protectant. The note with it: Erysiphe; 100 ppm spray, 24 hour protectant, wheat; control of fungal infection vs untreated plants; read-out: ERYSGT in vivo 1 Day Protectant.
For the next experiment, the system named is Ustilago maydis (USTIMA). Briefly: microbe, parasite or virus in culture. The class given is cell-based. The note with it: Mycosarcoma maydis, read-out: USTIMA in vitro Growth Inhibition.
The next experiment has as its system Septoria tritici—SEPTTR. Briefly: Leaf Blotch of Wheat, in vivo whole plant, 24 Hour Protectant. The note with it: 100 ppm spray, 24 hour protectant, wheat, control of fungal infection vs untreated plants; for pest or weed control at 100 ppm: Zymoseptoria tritici, 24 h, read-out: SEPTTR in vivo 1 Day Protectant.
Experiment [8] deals with Rhizoctonia solani (RHIZSO). Briefly: microbe, parasite or virus in culture. It counts as cell-based. To be noted: Rhizoctonia solani, read-out: RHIZSO in vitro Growth Inhibition.

Turning to `COc1ccnc(C(=O)NC2CC(C)(C)C=CC(C)C2C)c1O` (stereo not drawn) [Compound 279], the inhibition at 25 ppm in experiment [1] is more than 80%; in experiment [4] it was less than 80%; in experiment [5], more than 80%; in [6], more than 80%; in the experiment on Ustilago maydis (USTIMA) it was less than 80%; in experiment [8], less than 80%. Also, the pest or weed control at 100 ppm was less than 25% in experiment [2]; 25 to 74% in experiment [3]; 25 to 74% in experiment [7]; 25 to 74% with Erysiphe graminis—ERYSGT; 25 to 74% in the experiment with Septoria tritici—SEPTTR.

Take `COc1ccnc(C(=O)NC2CC(C)(C)C3OC3[C@H](C)[C@H]2C)c1O` (stereo partly drawn) [Compound 280]: the inhibition at 25 ppm (in experiment [1]; in experiment [4]; in [5]; in experiment [6]; with Ustilago maydis (USTIMA); in [8]) was less than 80% in each case. Moreover, the pest or weed control at 100 ppm in experiment [2] is 25 to 74%; in [3] it was 25 to 74%; in experiment [7] it was 25 to 74%; with Erysiphe graminis—ERYSGT, less than 25%; in the experiment with Septoria tritici—SEPTTR it was 25 to 74%.

In the case of `COc1ccnc(C(=O)NC2CC(C)(C)C(Cl)C(Cl)[C@H](C)[C@H]2C)c1O` (stereo partly drawn) [Compound 281], the inhibition at 25 ppm in [1] was less than 80%; in experiment [4], more than 80%; in [5] it was less than 80%; in experiment [6], more than 80%; with Ustilago maydis (USTIMA) it was less than 80%; in experiment [8], less than 80%. For the same molecule, the pest or weed control at 100 ppm (in experiment [2]; in experiment [3]; in experiment [7]; in the experiment on Erysiphe graminis—ERYSGT; with Septoria tritici—SEPTTR) was 25 to 74% throughout.

On to `COc1ccnc(C(=O)NC2CCCCCCC2)c1O` [Compound 282], for which the inhibition at 25 ppm (in [1]; in [4]; in experiment [5]; in experiment [6]; in the experiment on Ustilago maydis (USTIMA); in experiment [8]) was less than 80% each time. For the same molecule, the pest or weed control at 100 ppm in experiment [2] is 25 to 74%; in experiment [3] it was less than 25%; in [7] it was 25 to 74%; in the experiment with Erysiphe graminis—ERYSGT it was less than 25%; in the experiment with Septoria tritici—SEPTTR, 25 to 74%.

On to `COc1ccnc(C(=O)NC2CC(C)(C)/C=C\CC(C)(C)C2)c1O` (stereo not drawn) [Compound 283], for which the inhibition at 25 ppm (in experiment [1]; in experiment [4]; in experiment [5]; in experiment [6]; in the experiment on Ustilago maydis (USTIMA); in experiment [8]) was less than 80% each time. Further, the pest or weed control at 100 ppm in experiment [2] was 25 to 74%; in [3], less than 25%; in experiment [7], 25 to 74%; with Erysiphe graminis—ERYSGT, less than 25%. Besides, the “SEPTTR in vivo 1 Day Protectant” value in the experiment on Septoria tritici—SEPTTR is on record as “+ +”.

Consider `COc1ccnc(C(=O)NC2CC3CCC2C3)c1O` (stereo not drawn) [Compound 287], for which the inhibition at 25 ppm in [1] was less than 80%; in [4], less than 80%; in [5] it was less than 80%; in experiment [6], less than 80%; with Ustilago maydis (USTIMA), less than 80%; in experiment [8], more than 80%. Moreover, the pest or weed control at 100 ppm was 25 to 74% in [2]; less than 25% in [3]; 25 to 74% in [7]; less than 25% in the experiment with Erysiphe graminis—ERYSGT; 25 to 74% in the experiment with Septoria tritici—SEPTTR.

Take `COc1ccnc(C(=O)NC2C3(C)CCC(C3)C2(C)C)c1O` (stereo not drawn) [Compound 288]: the inhibition at 25 ppm in experiment [1] is less than 80%; in experiment [4], less than 80%; in [5] it was less than 80%; in experiment [6], less than 80%; with Ustilago maydis (USTIMA), less than 80%; in [8], more than 80%. The pest or weed control at 100 ppm in [2] was less than 25%; in experiment [3], less than 25%; in experiment [7], 25 to 74%; with Erysiphe graminis—ERYSGT it was less than 25%; in the experiment on Septoria tritici—SEPTTR, 25 to 74%.

Turning to `COc1ccnc(C(=O)N[C@@H]2CC3CC2c2ccccc23)c1O` (stereo partly drawn) [Compound 290], the inhibition at 25 ppm in experiment [1] was more than 80%; in experiment [4], more than 80%; in experiment [5] it was more than 80%; in experiment [6] it was less than 80%; in the experiment on Ustilago maydis (USTIMA), less than 80%; in experiment [8] it was more than 80%. The “PUCCRT in vivo 1 Day Protectant” value in experiment [2] is “+ +”. Besides, the pest or weed control at 100 ppm was less than 25% in experiment [3], 25 to 74% with Erysiphe graminis—ERYSGT and 25 to 74% in the experiment with Septoria tritici—SEPTTR. For the same molecule, the “LEPTNO in vivo 1 Day Protectant” value in experiment [7] was “+ +”.

Turning to `COc1ccnc(C(=O)N[C@H]2CC3CC2[C@@H](COCc2cccc(C(F)(F)F)c2)C3)c1O` (stereo partly drawn) [Compound 295], the inhibition at 25 ppm in experiment [1] was more than 80%; in [4] it was more than 80%; in experiment [5], more than 80%; in experiment [6] it was less than 80%; with Ustilago maydis (USTIMA), less than 80%; in experiment [8], more than 80%. For the same molecule, the pest or weed control at 100 ppm in [2] was 25 to 74%; in [3] it was less than 25%; in experiment [7], 25 to 74%; in the experiment on Erysiphe graminis—ERYSGT, less than 25%. For the same molecule, the “SEPTTR in vivo 1 Day Protectant” value in the experiment on Septoria tritici—SEPTTR is recorded as “+ +”.

Turning to `COc1ccnc(C(=O)N[C@@H]2CC3CC2C[C@@H]3COCc2cccc(C(F)(F)F)c2)c1O` (stereo partly drawn) [Compound 297], the inhibition at 25 ppm in experiment [1] is more than 80%; in [4] it was more than 80%; in experiment [5], more than 80%; in [6], less than 80%; in the experiment with Ustilago maydis (USTIMA) it was less than 80%; in [8], more than 80%. In addition, the pest or weed control at 100 ppm in experiment [2] is less than 25%; in experiment [3], less than 25%; in experiment [7], 25 to 74%; in the experiment with Erysiphe graminis—ERYSGT, less than 25%; in the experiment with Septoria tritici—SEPTTR, 25 to 74%.

On to `COc1ccnc(C(=O)N[C@@H]2CC3CC2[C@H]2COC[C@@H]32)c1O` (stereo partly drawn) [Compound 302], for which the inhibition at 25 ppm (in [1]; in experiment [4]; in experiment [5]; in experiment [6]; with Ustilago maydis (USTIMA); in [8]) was less than 80% each time. The pest or weed control at 100 ppm in [2] is less than 25%; in experiment [3], less than 25%; in [7], 25 to 74%; in the experiment with Erysiphe graminis—ERYSGT, less than 25%; in the experiment with Septoria tritici—SEPTTR, 25 to 74%.

On to `COc1ccnc(C(=O)N[C@@H]2CC3CC2C2C(=O)N(CC(C)C)C(=O)C32)c1O` (stereo partly drawn) [Compound 303], for which the inhibition at 25 ppm (in [1]; in [4]; in experiment [5]; in experiment [6]; with Ustilago maydis (USTIMA); in experiment [8]) was less than 80% in each case. In addition, the pest or weed control at 100 ppm was less than 25% in [2]; 25 to 74% in experiment [3]; 25 to 74% in [7]; less than 25% in the experiment on Erysiphe graminis—ERYSGT; 25 to 74% in the experiment on Septoria tritici—SEPTTR.
